We go through eight molecules from ChEMBL document CHEMBL3045683, “Synthesis, characterisation and antimicrobial activities of novel 7,9-diphenyl-1,2,4-triaza-8-oxa-spiro[4.5]-decan-3-thiones” (2011).

Molecules are shown by their SMILES. Values after ≈ are worked out from the molar mass of the structure shown.

Holding throughout (type): functional
The test system of one test is Aspergillus flavus. The test can be described thus: Antimicrobial activity against Aspergillus flavus after 72 to 96 hr by two-fold serial dilution method.
The next test concerns Rhizopus. The test can be described thus: Antimicrobial activity against Rhizopus sp. after 72 to 96 hr by two-fold serial dilution method.
The subject of the next test is Aspergillus niger. The test can be described thus: Antimicrobial activity against Aspergillus niger after 72 to 96 hr by two-fold serial dilution method.
Another test deals with Candida albicans. Briefly: Antimicrobial activity against Candida albicans after 72 to 96 hr by two-fold serial dilution method.
For a further test, the system named is Pseudomonas aeruginosa. Briefly: Antimicrobial activity against Pseudomonas aeruginosa after 24 hr by two-fold serial dilution method.
A further test relates to Salmonella typhi. Briefly: Antimicrobial activity against Salmonella enterica subsp. enterica serovar Typhi after 24 hr by two-fold serial dilution method.
The next test has as its system Escherichia coli. Briefly: Antimicrobial activity against Escherichia coli after 24 hr by two-fold serial dilution method.
Another test deals with Staphylococcus aureus. The test can be described thus: Antimicrobial activity against Staphylococcus aureus after 24 hr by two-fold serial dilution method.

One may read the MIC as the least concentration at which growth counts as inhibited. In the case of `C[C@@H]1[C@H](O)[C@@H](C)/C=C/C=C/C=C/C=C/C=C/C=C/C=C/[C@H](O[C@@H]2O[C@H](C)[C@@H](O)[C@H](N)[C@@H]2O)C[C@@H]2O[C@](O)(C[C@@H](O)C[C@@H](O)[C@H](O)CC[C@@H](O)C[C@@H](O)CC(=O)O[C@H]1C)C[C@H](O)[C@H]2C(=O)O` [AMPHOTERICIN B], the minimal inhibitory concentration (MIC) in the test on Aspergillus flavus is 50 µg/mL (≈ 54.1 µM); against Rhizopus, 25 µg/mL (≈ 27.1 µM); in the test on Aspergillus niger, 50 µg/mL (≈ 54.1 µM); in the test on Candida albicans, 25 µg/mL (≈ 27.1 µM).
For the molecule `CC1C(c2ccccc2)OC(c2ccccc2)CC12NC(=S)NN2c1ccccc1` (centres undefined), the minimal inhibitory concentration (MIC) in the test with Aspergillus flavus worked out at 12.5 µg/mL (≈ 30.1 µM); in the test with Rhizopus, 25 µg/mL (≈ 60.2 µM); with Aspergillus niger, 25 µg/mL (≈ 60.2 µM); against Candida albicans it was 50 µg/mL (≈ 120 µM); in the test on Pseudomonas aeruginosa it was 25 µg/mL (≈ 60.2 µM); against Salmonella typhi it was 25 µg/mL (≈ 60.2 µM). In addition, the minimal inhibitory concentration (MIC) in the test with Escherichia coli came out at 12.5 µg/mL (≈ 30.1 µM); in the test on Staphylococcus aureus, 25 µg/mL (≈ 60.2 µM).
Turning to `S=C1NN(c2ccccc2)C2(CC(c3ccccc3)OC(c3ccccc3)C2)N1` (centres undefined), the minimum inhibitory concentration (MIC) came to 12.5 µg/mL (≈ 31.1 µM) in the test with Aspergillus flavus; 12.5 µg/mL (≈ 31.1 µM) against Rhizopus; 50 µg/mL (≈ 125 µM) against Aspergillus niger; 50 µg/mL (≈ 125 µM) against Candida albicans; 25 µg/mL (≈ 62.3 µM) against Pseudomonas aeruginosa; 50 µg/mL (≈ 125 µM) against Salmonella typhi. For the same molecule, the minimum inhibitory concentration (MIC) in the test on Escherichia coli and against Staphylococcus aureus was 50 µg/mL (≈ 125 µM) each time.
On to `O=C(O)c1cn(C2CC2)c2cc(N3CCNCC3)c(F)cc2c1=O` [CIPROFLOXACIN], for which the minimal inhibitory concentration (MIC) against Salmonella typhi amounted to 50 µg/mL (≈ 151 µM); against Escherichia coli, 25 µg/mL (≈ 75.4 µM).
Take `CCC1C(c2ccccc2)OC(c2ccccc2)CC12NC(=S)NN2c1ccccc1` (centres undefined): the MIC against Aspergillus flavus came to 50 µg/mL (≈ 116 µM); in the test on Rhizopus, 12.5 µg/mL (≈ 29.1 µM); against Aspergillus niger, 25 µg/mL (≈ 58.2 µM); in the test with Candida albicans, 25 µg/mL (≈ 58.2 µM); against Pseudomonas aeruginosa, 12.5 µg/mL (≈ 29.1 µM); in the test on Salmonella typhi it was 25 µg/mL (≈ 58.2 µM). For the same molecule, the MIC against Escherichia coli stood at 12.5 µg/mL (≈ 29.1 µM); in the test with Staphylococcus aureus it was 25 µg/mL (≈ 58.2 µM).
Turning to `CCC1C(c2ccccc2)OC(c2ccccc2)CC12NNC(=S)N2` (centres undefined), the MIC against Aspergillus flavus amounted to 50 µg/mL (≈ 141 µM); in the test on Rhizopus it was 100 µg/mL (≈ 283 µM); in the test on Aspergillus niger, 25 µg/mL (≈ 70.7 µM); against Candida albicans, 100 µg/mL (≈ 283 µM); with Pseudomonas aeruginosa it was 100 µg/mL (≈ 283 µM); against Salmonella typhi, 25 µg/mL (≈ 70.7 µM). The minimum inhibitory concentration (MIC) against Escherichia coli was determined as 100 µg/mL (≈ 283 µM); in the test with Staphylococcus aureus, 50 µg/mL (≈ 141 µM).
On to `S=C1NNC2(CC(c3ccccc3)OC(c3ccccc3)C2)N1` (centres undefined), for which the MIC against Aspergillus flavus is 100 µg/mL (≈ 307 µM); with Rhizopus, 100 µg/mL (≈ 307 µM); against Aspergillus niger, 50 µg/mL (≈ 154 µM); with Candida albicans, 200 µg/mL (≈ 615 µM); in the test with Pseudomonas aeruginosa, 100 µg/mL (≈ 307 µM); against Salmonella typhi, 25 µg/mL (≈ 76.8 µM). Also, the values for the minimum inhibitory concentration (MIC) against Escherichia coli and with Staphylococcus aureus were 50 µg/mL (≈ 154 µM) and 12.5 µg/mL (≈ 38.4 µM), respectively.
For the molecule `CC1C(c2ccccc2)OC(c2ccccc2)CC12NNC(=S)N2` (centres undefined), the minimum inhibitory concentration (MIC) against Aspergillus flavus worked out at 50 µg/mL (≈ 147 µM); against Rhizopus, 25 µg/mL (≈ 73.6 µM); with Aspergillus niger, 50 µg/mL (≈ 147 µM); in the test on Candida albicans, 100 µg/mL (≈ 295 µM); with Pseudomonas aeruginosa, 50 µg/mL (≈ 147 µM); against Salmonella typhi, 100 µg/mL (≈ 295 µM). Also, the minimum inhibitory concentration (MIC) against Escherichia coli is 100 µg/mL (≈ 295 µM); with Staphylococcus aureus, 25 µg/mL (≈ 73.6 µM).
